# Tests used:
# [1] = tested on: transgenic zebrafish (FLK-1:EGFP); experiment: Zebrafish angiogenesis assay (ISVs); type: in vivo; settings: Danio rerio, transgenic zebrafish; triplicate, mean ± SD; read-out: Zebrafish (antiangiogenic activity IC50)
# Method: The transgenic flk: enhanced GFP zebrafish embryos were generated by pair-wise mating, collected and sorted into the 6-well plate (n = 30 per well) with 1 ml of aquaculture water (0.2 g/L of Instant Ocean Salt in distilled water) and raised at 28 °C. Then the embryos staged at 12 h post fertilisation (hpf) were treated with the indicated concentrations of compounds which were added into embryo water. About 30 embryos were screened for each concentration gradient. At 30hpf, the treated embryos were anaesthetised with 0.02% tricaine in embryo water and photographed. The numbers of ISVs were recorded under confocal microscopy. Results were obtained from three independent determinations and presented as mean ± SD.[38]
# [2] = target: T1, Tubulin isolated from porcine brain tissue (Sus scrofa, UniProt P02550+P02554); experiment: Tubulin polymerisation assay; type: biochemical; settings: triplicate, mean ± SD; read-out: Tubulin (tubulin inhibitory polymerisation IC50)
# T1 construct: purchased Cytoskeleton (Denver, CO), via Beyotime, China; host or cells: porcine brain tissue
# Method: Tubulin polymerisation was determined with the tubulin polymerisation assay kit (Cytoskeleton, Denver, CO which was purchased from Cytoskeleton, Beyotime, China. Tubulin isolated from porcine brain tissue was used in this commercial kit.) It is based on the principal that light is scattered by microtubules to an extent that is proportional to the concentration of the microtubule polymer. Compounds that interact with tubulin will alter the polymerisation of tubulin, and this can be detected using a spectrophotometer. Tubulin polymerisation dynamics was monitored through measuring the change of absorbance at 340 nm every 2 min for 30 min at 37 °C on a spectrophotometer.
# T1 sequence (P02554 whole entry): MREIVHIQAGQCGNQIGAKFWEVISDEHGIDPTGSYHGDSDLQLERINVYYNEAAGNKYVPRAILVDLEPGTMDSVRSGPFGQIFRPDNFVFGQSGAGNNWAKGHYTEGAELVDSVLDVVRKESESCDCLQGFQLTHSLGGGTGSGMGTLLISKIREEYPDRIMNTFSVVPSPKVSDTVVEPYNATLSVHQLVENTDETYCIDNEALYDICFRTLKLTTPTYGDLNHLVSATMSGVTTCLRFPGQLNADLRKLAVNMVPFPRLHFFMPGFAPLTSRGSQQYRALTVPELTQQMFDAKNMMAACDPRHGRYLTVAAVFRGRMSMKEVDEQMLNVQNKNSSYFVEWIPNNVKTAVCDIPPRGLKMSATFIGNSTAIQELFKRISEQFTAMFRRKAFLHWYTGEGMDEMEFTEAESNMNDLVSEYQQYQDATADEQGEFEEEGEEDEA
# T1 sequence (P02550 whole entry): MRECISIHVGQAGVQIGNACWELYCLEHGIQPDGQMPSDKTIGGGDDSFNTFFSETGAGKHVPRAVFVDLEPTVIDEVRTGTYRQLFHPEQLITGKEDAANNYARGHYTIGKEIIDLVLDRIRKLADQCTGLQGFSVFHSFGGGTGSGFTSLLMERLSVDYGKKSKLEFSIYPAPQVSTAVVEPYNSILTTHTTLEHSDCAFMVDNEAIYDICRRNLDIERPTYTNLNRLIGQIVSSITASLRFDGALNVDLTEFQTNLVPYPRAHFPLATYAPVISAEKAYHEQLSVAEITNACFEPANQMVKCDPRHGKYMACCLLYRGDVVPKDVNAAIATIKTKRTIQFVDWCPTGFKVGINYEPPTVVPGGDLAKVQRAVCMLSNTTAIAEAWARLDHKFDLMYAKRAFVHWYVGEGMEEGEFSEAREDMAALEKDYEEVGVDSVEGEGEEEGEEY
Compound,IC50 [1] [µM],IC50 [2] [µM],melting point [°C]
COc1cc(C(=O)C=Cc2c[nH]c3ccccc23)cc(OC)c1OC [Compound 6],27.8 ± 0.9,8.5 ± 1.2,
COc1cc(C(=O)C=Cc2cc3ccccc3o2)cc(OC)c1OC [Compound 7],29.5 ± 1.5,18.6 ± 0.5,
COc1cc(C(=O)C=Cc2ccc3sc4ccccc4c3c2)cc(OC)c1OC [Compound 8],68.6 ± 2.1,45.7 ± 2.3,
COc1cc(C(=O)C=Cc2nc3ccccc3[nH]2)cc(OC)c1OC [Compound 9],> 100,20.8 ± 1.4,
"Cn1cc(/C=C/C(=O)c2ccccc2)c2ccccc21 [Compound 23a, (E)-3–(1-Methyl-1H-indol-3-yl)-1-phenylprop-2-en-1-one]",,> 100,
"CCn1cc(/C=C/C(=O)c2ccccc2)c2ccccc21 [Compound 23b, (E)-3–(1-Ethyl-1H-indol-3-yl)-1-phenylprop-2-en-1-one]",,> 100,165 to 168
"CCCn1cc(/C=C/C(=O)c2ccccc2)c2ccccc21 [Compound 23c, (E)-1-Phenyl-3–(1-propyl-1H-indol-3-yl)prop-2-en-1-one]",,> 100,161 to 162
"O=C(/C=C/c1cn(Cc2ccccc2)c2ccccc12)c1ccccc1 [Compound 23d, (E)-3–(1-Benzyl-1H-indol-3-yl)-1-phenylprop-2-en-1-one]",,68.6 ± 3.2,161 to 163
"O=C(/C=C/c1cn(S(=O)(=O)c2ccccc2)c2ccccc12)c1ccccc1 [Compound 23e, (E)-1-Phenyl-3–(1-(phenylsulfonyl)-1H-indol-3-yl)prop-2-en-1-one]",,> 100,165 to 168
"Cn1cc(/C=C/C(=O)c2cccc(Cl)c2)c2ccccc21 [Compound 24a, (E)-1–(3-Chlorophenyl)-3–(1-methyl-1H-indol-3-yl)prop-2-en-1-one]",,> 100,173 to 175
"CCn1cc(/C=C/C(=O)c2cccc(Cl)c2)c2ccccc21 [Compound 24b, (E)-1–(3-Chlorophenyl)-3–(1-ethyl-1H-indol-3-yl)prop-2-en-1-one]",,> 100,165 to 168
"CCCn1cc(/C=C/C(=O)c2cccc(Cl)c2)c2ccccc21 [Compound 24c, (E)-1–(3-Chlorophenyl)-3–(1-propyl-1H-indol-3-yl)prop-2-en-1-one]",,> 100,161 to 162
"O=C(/C=C/c1cn(Cc2ccccc2)c2ccccc12)c1cccc(Cl)c1 [Compound 24d, (E)-3–(1-Benzyl-1H-indol-3-yl)-1–(3-chlorophenyl)prop-2-en-1-one]",,> 100,161 to 163
"O=C(/C=C/c1cn(S(=O)(=O)c2ccccc2)c2ccccc12)c1cccc(Cl)c1 [Compound 24e, (E)-1–(3-Chlorophenyl)-3–(1-(phenylsulfonyl)-1H-indol-3-yl)prop-2-en-1-one]",,92.3 ± 2.4,165 to 168
"Cn1cc(/C=C/C(=O)c2ccc(Cl)cc2)c2ccccc21 [Compound 25a, (E)-1–(4-chlorophenyl)-3–(1-methyl-1H-indol-3-yl)prop-2-en-1-one]",,> 100,171 to 173
"CCn1cc(/C=C/C(=O)c2ccc(Cl)cc2)c2ccccc21 [Compound 25b, (E)-1–(4-chlorophenyl)-3–(1-ethyl-1H-indol-3-yl)prop-2-en-1-one]",,> 100,165 to 168
"CCCn1cc(/C=C/C(=O)c2ccc(Cl)cc2)c2ccccc21 [Compound 25c, (E)-1–(4-chlorophenyl)-3–(1-propyl-1H-indol-3-yl)prop-2-en-1-one]",,> 100,160 to 162
"O=C(/C=C/c1cn(Cc2ccccc2)c2ccccc12)c1ccc(Cl)cc1 [Compound 25d, (E)-3–(1-benzyl-1H-indol-3-yl)-1–(4-chlorophenyl)prop-2-en-1-one]",,> 100,163 to 165
"O=C(/C=C/c1cn(S(=O)(=O)c2ccccc2)c2ccccc12)c1ccc(Cl)cc1 [Compound 25e, (E)-1–(4-chlorophenyl)-3–(1-(phenylsulfonyl)-1H-indol-3-yl)prop-2-en-1-one]",,> 100,162 to 165

Compound,IC50 [1] [µM],IC50 [2] [µM],melting point [°C]
"COc1ccc(C(=O)/C=C/c2cn(C)c3ccccc23)cc1 [Compound 26a, (E)-1–(4-Methoxyphenyl)-3–(1-methyl-1H-indol-3-yl)prop-2-en-1-one]",,85.7 ± 2.5,160 to 162
"CCn1cc(/C=C/C(=O)c2ccc(OC)cc2)c2ccccc21 [Compound 26b, (E)-3–(1-Ethyl-1H-indol-3-yl)-1–(4-methoxyphenyl)prop-2-en-1-one]",,78.8 ± 1.3,165 to 168
"CCCn1cc(/C=C/C(=O)c2ccc(OC)cc2)c2ccccc21 [Compound 26c, (E)-1–(4-Methoxyphenyl)-3–(1-propyl-1H-indol-3-yl)prop-2-en-1-one]",,72.5 ± 1.7,161 to 162
"COc1ccc(C(=O)/C=C/c2cn(Cc3ccccc3)c3ccccc23)cc1 [Compound 26d, (E)-3–(1-Benzyl-1H-indol-3-yl)-1–(4-methoxyphenyl)prop-2-en-1-one]",,75.8 ± 2.6,161 to 163
"COc1ccc(C(=O)/C=C/c2cn(S(=O)(=O)c3ccccc3)c3ccccc23)cc1 [Compound 26e, (E)-1–(4-Methoxyphenyl)-3–(1-(phenylsulfonyl)-1H-indol-3-yl)prop-2-en-1-one]",35.6 ± 3.2,58.4 ± 1.7,165 to 168
"COc1cccc(C(=O)/C=C/c2cn(C)c3ccccc23)c1 [Compound 27a, (E)-1–(3-Methoxyphenyl)-3–(1-methyl-1H-indol-3-yl)prop-2-en-1-one]",,> 100,161 to 162
"CCn1cc(/C=C/C(=O)c2cccc(OC)c2)c2ccccc21 [Compound 27b, (E)-3–(1-Ethyl-1H-indol-3-yl)-1–(3-methoxyphenyl)prop-2-en-1-one]",,> 100,165 to 166
"CCCn1cc(/C=C/C(=O)c2cccc(OC)c2)c2ccccc21 [Compound 27c, (E)-1–(3-Methoxyphenyl)-3–(1-propyl-1H-indol-3-yl)prop-2-en-1-one]",18.6 ± 3.2,52.1 ± 2.9,161 to 162
"COc1cccc(C(=O)/C=C/c2cn(Cc3ccccc3)c3ccccc23)c1 [Compound 27d, (E)-3–(1-Benzyl-1H-indol-3-yl)-1–(3-methoxyphenyl)prop-2-en-1-one]",,> 100,161 to 163
"COc1cccc(C(=O)/C=C/c2cn(S(=O)(=O)c3ccccc3)c3ccccc23)c1 [Compound 27e, (E)-1–(3-Methoxyphenyl)-3–(1-(phenylsulfonyl)-1H-indol-3-yl)prop-2-en-1-one]",,87.2 ± 1.4,167 to 168
"Cn1cc(/C=C/C(=O)c2ccc(C(F)(F)F)cc2)c2ccccc21 [Compound 28a, (E)-3–(1-Methyl-1H-indol-3-yl)-1–(4-(trifluoromethyl)phenyl)prop-2-en-1-one]",,> 100,160 to 162
"CCn1cc(/C=C/C(=O)c2ccc(C(F)(F)F)cc2)c2ccccc21 [Compound 28b, (E)-3–(1-ethyl-1H-indol-3-yl)-1–(4-(trifluoromethyl)phenyl)prop-2-en-1-one]",,> 100,165 to 168
"CCCn1cc(/C=C/C(=O)c2ccc(C(F)(F)F)cc2)c2ccccc21 [Compound 28c, (E)-3–(1-Propyl-1H-indol-3-yl)-1–(4-(trifluoromethyl)phenyl)prop-2-en-1-one]",,26.8 ± 4.6,161 to 162
"O=C(/C=C/c1cn(Cc2ccccc2)c2ccccc12)c1ccc(C(F)(F)F)cc1 [Compound 28d, (E)-3–(1-Benzyl-1H-indol-3-yl)-1–(4-(trifluoromethyl)phenyl)prop-2-en-1-one]",,> 100,160 to 163
"O=C(/C=C/c1cn(S(=O)(=O)c2ccccc2)c2ccccc12)c1ccc(C(F)(F)F)cc1 [Compound 28e, (E)-3–(1-(phenylsulfonyl)-1H-indol-3-yl)-1–(4-(trifluoromethyl)phenyl)prop-2-en-1-one]",5.8 ± 2.1,10.4 ± 0.7,167 to 170
"COc1cc(C(=O)/C=C/c2cn(C)c3ccccc23)cc(OC)c1OC [Compound 29a, (E)-3–(1-Methyl-1H-indol-3-yl)-1–(3,4,5-trimethoxyphenyl)prop-2-en-1-one]",15.7 ± 3.2,49.9 ± 8.5,160 to 162
"CCn1cc(/C=C/C(=O)c2cc(OC)c(OC)c(OC)c2)c2ccccc21 [Compound 29b, (E)-3–(1-Ethyl-1H-indol-3-yl)-1–(3,4,5-trimethoxyphenyl)prop-2-en-1-one]",,> 100,155 to 158
"CCCn1cc(/C=C/C(=O)c2cc(OC)c(OC)c(OC)c2)c2ccccc21 [Compound 29c, (E)-3–(1-Propyl-1H-indol-3-yl)-1–(3,4,5-trimethoxyphenyl)prop-2-en-1-one]",,> 100,162 to 164
